Results on two molecules are retold here after patent US20260137082A1 (priority 2021, published 2026).

Test [1] relates to Gibberella fujikuroi. Put plainly: microbe, parasite or virus in culture. Conditions: Fusarium fujikuroi, 72 h, read-out: EC50 Value. Format: cell-based.
In test [2] the test system is Fusarium asiaticum. Put plainly: microbe, parasite or virus in culture. Conditions: 72 h, read-out: EC50 Value.
Procedure: The fungicidal activity of cyclobutrifluram, fludioxonil (FDL), and mixtures thereof with various weight ratios (e.g., 10:1 and 1:50) of cyclobutrifluram and FDL was tested against Fusarium asiaticum and Fusarium pseudograminearum.
Specifically, according to the results of pre-experiment, the best concentration ranges for determination of the sensitivity of pathogens to cyclobutrifluram, FDL and mixtures thereof were respectively determined, and 5-7 concentration gradients were set to make the inhibition rate at the minimum concentration close to 10% and the inhibition rate at the highest concentration close to 90%. […]
Mycelial plugs in the edge of colony were prepared by hole puncher with a diameter of 5 mm. […] After cultured in an incubator at 25° C. for three days in darkness, the diameters of every mycelial colony on PDA plates were measured twice perpendicularly and then averaged. […]
The EC50 values of each tested agent and each mixture were calculated by the linear regression analysis between the probability value of the inhibition rate and the log value of the series of concentrations. The co-toxicity coefficient (CTC) of the mixtures was calculated and evaluated according to the Sun-YP method.
The subject of test [3] is Fusarium graminearum (Gibberella zeae) strain K-6102. Format: cell-based. Conditions: solo fungicide, 4 days, 24° C., OD 620 nm.

In brackets after ≈: the same amount, converted by molar mass. Read-outs that look alike come from different tables or passages of the source.

As to `N#CC1=CN=CC1c1cccc2c1OC(F)(F)O2` (stereo not shown) [FDL, 4-(2,2-difluoro-benzo[1,3]dioxol-4-yl)pyrrole-3-carbonitrile], the EC50 in test [1] is 0.173 µg/mL (≈ 0.697 µM); in test [2], 0.0196 µg/mL (≈ 0.079 µM). The figures for the “Efficacy (%, n = 5)” value in test [3] (0.1 ppm), in test [3] (1 ppm) and in test [3] (10 ppm) were 20.4%, 43.4% and 65.4%, respectively.

`O=C(NC1CCC1c1ccc(Cl)cc1Cl)c1cccnc1C(F)(F)F` (stereo in doubt) [cyclobutrifluram, N-[(1,2 cis)-2-(2,4-dichlorophenyl)cyclobutyl]-2-(trifluoromethyl)pyridine-3-carboxamide]: the EC50 was 0.75 µg/mL (≈ 1.93 µM) in test [1] and 0.0214 µg/mL (≈ 0.055 µM) in test [2]. Moreover, the “Efficacy (%, n = 5)” value amounted to 30.8% in test [3] (0.1 ppm), 31.3% in test [3] (1 ppm) and 34.1% in test [3] (10 ppm).

By EC50 is commonly meant the concentration at which the effect is half-maximal.
